Laboratory results: patent publication US20210238139A1, “MODULATORS OF TRYPTOPHAN CATABOLISM” (E-Therapeutics PLC, priority 2018, published 2021)
Values joined by “and” are separate entries in the source; they are usually repeats but may differ in a detail not shown here. Equal values may be shown once.

Assays:
SK-OV-3 cells = experiment: Effect of compounds on tryptophan catabolism in SK-OV-3 cell line (inhibition of kynurenine production, LC-MS/MS); assay type: cell-based; conditions: Homo sapiens, SK-OV-3, 24 h, SK-OV-3 cell line, 24 h incubation, kynurenine in supernatant by LC-MS/MS; read-out: IC50 Ranges (ic50 values for inhibition of Kynurenine production)
Method in brief: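 Kynurenine in supernatants quantified by LC-MS/MS after 24 h compound exposure (37 °C; top 30 μM, eight 3-fold steps, duplicate) in DMEM F-12 containing 6 mg/mL L-tryptophan. Cells pre-plated overnight in McCoy's 5A with 10% FBS. Viability checked in parallel by ATP luminescence.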

TDO2 enzyme = biological target: T1, TDO2 enzyme (Homo sapiens, UniProt P48775); experiment: TDO2 enzyme inhibition assay (hTDO2 assay kit, NFK-green); conditions: TDO2 enzyme 50 nM, tryptophan 200 μM, top concentration 30 μM; read-out: TDO2 Biochemical assay IC50
T1 construct: purchased Netherlands Translational Research Center B.V. NTRC-hTDO-1K
Experimental: The effect of compounds on TDO2 enzymatic activity was assess by use of an hTDO2 assay kit (Netherlands Translational Research Center B.V., Cat #NTRC-hTDO-1K). TDO2 enzyme and tryptophan substrate are diluted in assay buffer. Compounds are tested at 8 consecutive 3-fold dilutions starting from 30 μM. 267 nL of compound is added per well of a 384-well plate followed by addition of 10 μL of assay buffer. TDO2 enzyme is added at a final concentration of 50 nM and pre-incubated for 60 min at room temperature in the dark. Tryptophan substrate solution is then added at final concentration of 200 μM to all wells and the plate incubated for 15 min at RT in the dark. Finally NFK-green reagent is added at ⅕ of total reaction volume and incubated for 4 h at RT in the dark. After incubation fluorescence is measured at Ex405 nm-Em535 nm using EnVision plate reader.
(§1) IC50 values are determined using GraphPad Prism software 5.04 for Windows by plotting percent of inhibition against log 10 concentrations of compounds using a four-parametric sigmoidal curve with a variable slope.

IDO1 enzyme = biological target: T2, IDO1 enzyme (Homo sapiens, UniProt P14902); experiment: IDO1 enzyme inhibition assay (hIDO assay kit, NFK-green); conditions: IDO1 enzyme 25 nM, tryptophan 100 μM, top concentration 30 μM; read-out: IDO1 Biochemical assay IC50
T2 construct: purchased Netherlands Translational Research Center B.V. NTRC-hIDO-1K
Experimental: The effect of compounds on IDO1 enzymatic activity was assessed by use of a hIDO assay kit (Netherlands Translational Research Center B.V., Cat #NTRC-hIDO-1K). IDO1 enzyme and tryptophan substrate are diluted in assay buffer. Compounds are tested at 8 consecutive 3-fold dilutions starting from 30 μM. 267 nL of compound is added per well of a 384-well plate followed by addition of 10 μL of assay buffer. IDO1 enzyme is added at a final concentration of 25 nM and pre-incubated for 30 min at room temperature in the dark. Tryptophan substrate solution is then added at final concentration of 100 μM to all wells and the plate incubated for 60 min at RT in the dark. Finally NFK-green reagent is added at ⅕ of total reaction volume and incubated for 4 h at RT in the dark. After incubation fluorescence is measured at Ex405 nm-Em535 nm using EnVision plate reader.
as §1

T2 sequence (P14902 whole entry): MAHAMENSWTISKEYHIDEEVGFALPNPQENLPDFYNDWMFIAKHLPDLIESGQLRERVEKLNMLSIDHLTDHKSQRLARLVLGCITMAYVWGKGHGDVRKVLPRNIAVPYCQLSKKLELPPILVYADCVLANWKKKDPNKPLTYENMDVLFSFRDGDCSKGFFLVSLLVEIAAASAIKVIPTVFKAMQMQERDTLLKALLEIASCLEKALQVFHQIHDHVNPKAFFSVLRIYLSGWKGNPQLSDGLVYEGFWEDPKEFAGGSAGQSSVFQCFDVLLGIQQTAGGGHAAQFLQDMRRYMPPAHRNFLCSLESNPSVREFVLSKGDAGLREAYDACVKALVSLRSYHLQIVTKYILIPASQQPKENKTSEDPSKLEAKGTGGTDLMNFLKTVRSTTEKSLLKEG
T1 sequence (P48775 whole entry): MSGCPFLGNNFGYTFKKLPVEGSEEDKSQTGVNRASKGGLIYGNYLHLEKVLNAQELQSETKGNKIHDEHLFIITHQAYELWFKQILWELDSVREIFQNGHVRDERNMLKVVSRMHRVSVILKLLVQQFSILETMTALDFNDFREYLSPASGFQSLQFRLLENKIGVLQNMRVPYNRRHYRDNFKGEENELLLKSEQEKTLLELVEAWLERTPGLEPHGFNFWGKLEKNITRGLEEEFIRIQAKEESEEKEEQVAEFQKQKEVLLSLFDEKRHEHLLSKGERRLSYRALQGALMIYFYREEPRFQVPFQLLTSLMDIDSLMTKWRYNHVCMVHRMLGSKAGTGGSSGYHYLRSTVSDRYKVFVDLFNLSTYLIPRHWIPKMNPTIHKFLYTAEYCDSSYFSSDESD

SMILES	IC50 (SK-OV-3 cells) [µM]	IC50 (TDO2 enzyme)	IC50 (IDO1 enzyme) [µM]
Cc1ccc(C(C)N(C(=O)Nc2ccc(Cl)cc2)C2CCCC2)o1 (racemic) [Compound 185, 3-(4-chlorophenyl)-1-cyclopentyl-1-[1-(5-methyl-2-furyl)ethyl]urea]	< 0.1	> 30 µM	
CCc1ccc(NC(=O)N(Cc2cccs2)C2CCCC2)cc1 [Compound 3, 1-cyclopentyl-3-(4-ethylphenyl)-1-(2-thienylmethyl)urea]	0.1 to 0.5	> 30 µM	> 30
CCc1ccc(NC(=O)N(Cc2ccccn2)C2CCCCC2)cc1 [Compound 21, 1-cyclohexyl-3-(4-ethylphenyl)-1-(2-pyridylmethyl)urea]	1 to 5	> 30 µM	
O=C(Nc1ccccc1)N(Cc1ccncc1)C1CCCC1 [Compound 74, 1-cyclopentyl-3-phenyl-1-(4-pyridylmethyl)urea]	> 5	> 30 µM	
Cc1ccc(CN(C(=O)Nc2ccc(Cl)nc2)C2CCCC2)o1 [Compound 92, 3-(6-chloro-3-pyridyl)-1-cyclopentyl-1-[(5-methyl-2-furyl)methyl]urea]	< 0.1	> 30 µM	
Cc1ccc(CN(C(=O)Nc2ccc(F)c(O)c2)C2CCCC2)o1 [Compound 104, 1-cyclopentyl-3-(4-fluoro-3-hydroxy-phenyl)-1-[(5-methyl-2-furyl)methyl]urea]	> 5	> 30 µM	
Cc1ccc(CN(C(=O)Nc2ccc(N3CCOCC3)cc2)C2CCCC2)o1 [Compound 123, 1-cyclopentyl-1-[(5-methyl-2-furyl)methyl]-3-(4-morpholinophenyl)urea]	> 5	> 30 µM	
O=C(Nc1ccc(Cl)cc1)N(Cc1cc2ccccc2o1)C1CCCC1 [Compound 130, 1-(benzofuran-2-ylmethyl)-3-(4-chlorophenyl)-1-cyclopentyl-urea]	< 0.1	> 30 µM	
Cc1ccc(CN(C(=O)Nc2ccc(C3=CCN(C(=O)OC(C)(C)C)C3)cc2)C2CCCC2)o1 [Compound 158, tert-butyl 3-[4-[[cyclopentyl-[(5-methyl-2-furyl)methyl]carbamoyl]amino]phenyl]-2,5-dihydropyrrole-1-carboxylate]	0.5 to 1	6.4 µM	> 30
N#Cc1ccc(NC(=O)N(Cc2ccc3ncsc3c2)C2CCC2)cc1 [Compound 213, 1-(1,3-benzothiazol-6-ylmethyl)-3-(4-cyanophenyl)-1-cyclobutyl-urea]	< 0.1		> 30
O=C(Nc1ccc(Cl)cc1)N(Cc1cn2ccsc2n1)C1CCC1 [Compound 269, 3-(4-chlorophenyl)-1-cyclobutyl-1-(imidazo[2,1-b]thiazol-6-ylmethyl)urea]	0.1 to 0.5		> 30
N#Cc1ccc(NC(=O)N(Cc2cn3ccsc3n2)C2CCC2)cc1 [Compound 270, 3-(4-cyanophenyl)-1-cyclobutyl-1-(imidazo[2,1-b]thiazol-6-ylmethyl)urea]	0.5 to 1		> 30
Cc1cn(-c2ccc(NC(=O)N(Cc3ccc(C)o3)C3CCCC3)cc2)nn1 [Compound 320, 1-cyclopentyl-1-[(5-methyl-2-furyl)methyl]-3-[4-(4-methyltriazol-1-yl)phenyl]urea]	0.1 to 0.5		
COc1cc(NC(=O)N(Cc2ccc(C)o2)C2CCCC2)ccc1-n1cc(CO)nn1 [Compound 323, 1-cyclopentyl-[4-[4-(hydroxymethyl)triazol-1-yl]-3-methoxy-phenyl]-1-[(5-methyl-2-furyl)methyl]urea]	0.1 to 0.5		

More lines, now with the values ahead:

IC50 (SK-OV-3 cells) [µM]	IC50 (TDO2 enzyme)	IC50 (IDO1 enzyme) [µM]	SMILES
0.1 to 0.5	> 30 µM		Cc1ccc(CN(C(=O)Nc2ccc(-c3cnoc3)cc2)C2CCCC2)o1 [Compound 105, 1-cyclopentyl-3-(4-isoxazol-4-ylphenyl)-1-[(5-methyl-2-furyl)methyl]urea]
1 to 5	6 µM	> 30	Cc1ccc(CN(C(=O)Nc2ccc(C#CC(C)(C)O)cc2)C2CCCC2)o1 [Compound 109, 1-cyclopentyl-3-[4-(3-hydroxy-3-methyl-but-1-ynyl)phenyl]-1-[(5-methyl-2-furyl)methyl]urea]
0.1 to 0.5	> 30 µM		Cc1ccc(CN(C(=O)Nc2ccc(C#CCN)cc2)C2CCCC2)o1 [Compound 110]
< 0.1	4.8 µM and 2.2 µM	> 30	Cc1ccc(CN(C(=O)Nc2ccc(C#CCO)cc2)C2CCCC2)o1 [Compound 111, 1-cyclopentyl-3-[4-(3-hydroxyprop-1-ynyl)phenyl]-1-[(5-methyl-2-furyl)methyl]urea]
< 0.1	> 30 µM	> 30	CC#Cc1ccc(NC(=O)N(Cc2ccc(C)o2)C2CCCC2)cc1 [Compound 154]
> 5		> 30	Cc1ccc(CN(C(=O)Nc2ccc(C#N)cc2)c2ccnn2C)o1 [Compound 215, 3-(4-cyanophenyl)-1-[(5-methyl-2-furyl)methyl]-1-(2-methylpyrazol-3-yl)urea]
> 5		> 30	Cc1ccc(CN(C(=O)Nc2ccc(Cl)cc2)c2ccnn2C)o1 [Compound 220, 3-(4-chlorophenyl)-1-[(5-methyl-2-furyl)methyl]-1-(2-methylpyrazol-3-yl)urea]
< 0.1		> 30	Cc1ccc(CN(C(=O)Nc2ccc(Cl)cc2)c2cnoc2C)o1 [Compound 256, 3-(4-chlorophenyl)-1-[(5-methyl-2-furyl)methyl]-1-(5-methylisoxazol-4-yl)urea]
< 0.1		> 30	Cc1ccc(CN(C(=O)Nc2ccc(C#N)cc2)c2cnoc2C)o1 [Compound 257, 3-(4-cyanophenyl)-1-[(5-methyl-2-furyl)methyl]-1-(5-methylisoxazol-4-yl)urea]
1 to 5		> 30	Cn1nccc1N(Cc1ccc2ncsc2c1)C(=O)Nc1ccc(C#N)cc1 [Compound 276, 1-(1,3-benzothiazol-6-ylmethyl)-3-(4-cyanophenyl)-1-(2-methyl-iH-pyrazol-3-yl) urea]
< 0.1		> 30	Cc1ccc(CN(C(=O)Nc2ccc(Cl)cc2)c2conc2C)o1 [Compound 277, 3-(4-chlorophenyl)-1-[(5-methyl-2-furyl)methyl]-1-(3-methylisoxazol-4-yl)urea]
< 0.1		> 30	COCC#Cc1ccc(NC(=O)N(Cc2ccc(C)o2)c2cnoc2C)cc1 [Compound 279, 3-[4-(3-methoxyprop-1-ynyl)phenyl]-1-[(5-methyl-2-furyl)methyl]-1-(5-methylisoxazol-4-yl)urea]
1 to 5			Cc1ncc(CN(C(=O)Nc2ccc(C#CCO)cc2)c2conc2C)o1 [Compound 321, 3-[4-(3-hydroxyprop-1-ynyl)phenyl]-1-(3-methylisoxazol-4-yl)-1-[(2-methyloxazol-5-yl)methyl]urea]
< 0.1			Cc1ccc(CN(C(=O)Nc2ccc(C#N)cc2)c2nonc2C)o1 [Compound 322, 3-(4-cyanophenyl)-1-[(5-methyl-2-furyl)methyl]-1-(4-methyl-1,2,5-oxadiazol-3-yl)urea]
> 5			Cc1ccc(CN(C(=O)Nc2ccc(C#N)cc2)c2ncccn2)o1 [Compound 324, 3-(4-cyanophenyl)-1-[(5-methyl-2-furyl)methyl]-1-pyrimidin-2-yl-urea]
> 5			Cc1nocc1N(CC1CCC2(CC1)COC2)C(=O)Nc1ccc(C#N)cc1 [Compound 325, 3-(4-cyanophenyl)-(3-methylisoxazol-4-yl)-1-(2-oxaspiro[3.5]nonan-7-ylmethyl)urea]
> 5			Cc1nocc1N(CC1CCC2(CC1)COC2)C(=O)Nc1ccc(Cl)cc1 [Compound 326, 3-(4-chlorophenyl)-1-(3-methylisoxazol-4-yl)-1-(2-oxaspiro[3.5]nonan-7-ylmethyl)urea]
1 to 5			Cc1ccc(CN(C(=O)Nc2ccc(Cl)cc2)c2ncccn2)o1 [Compound 327, 3-(4-chlorophenyl)-1-[(5-methyl-2-furyl)methyl]-1-pyrimidin-2-yl-urea]
< 0.1			Cc1ccc(CN(C(=O)Nc2ccc(Cl)cc2)c2csnc2C)o1 [Compound 328, 3-(4-chlorophenyl)-1-[(5-methyl-2-furyl)methyl]-1-(3-methylisothiazol-4-yl)urea]
